Results: patent US11571421B2, “GABAA positive allosteric modulator compounds for treatment of itch and/or dermatitis” (NeuroCycle Therapeutics, Inc., priority 2018, dated 2023)

Key:
[1] = test system: Non-Histamine-Induced Itch Model in Male C57BL/6 Mice; assay: Non-Histamine (chloroquine)-Induced Itch Model (Example 5); assay type: in vivo; details: oral gavage 90 min before chloroquine; 1, 3, 10, 30 and 100 mg/kg
Protocol: The mice are dosed with PF-06372865 by oral gavage ninety (90) minutes before chloroquine injection. Doses of PF-06372865 are 1, 3, 10, 30 and 100 mg/kg.

[2] = test system: Oxazolone-Induced Dermatitis Model in male C57BL/6 mice; assay: Repeat dose Oxazolone-Induced Dermatitis Model (Example 10); assay type: in vivo
Protocol: Male C57BL/6 Mice (8-10 weeks) are used in the study. Mice are housed one per cage and are maintained at controlled environmental conditions with 12-h light and dark cycles. The temperature and humidity of the room are maintained between 22±3° C. and 55±5%, respectively. The maximum and minimum temperature and relative humidity in the experimental rooms are recorded once daily.
NCT10004 phosphate (adjusted with salt correction factor) is weighed into a clean glass container. 0.5% Methyl Cellulose (MC) is added, and the resulting mixture is mixed well using mild vortexing and stirred for 40 minutes to provide a homogeneous suspension.
PF-06372865 is weighed into a clean mortar. […]
Animals are dosed with respective treatment groups for fourteen consecutive Days (From Day 17-Day 30). To quantify any changes in the severity of skin lesions, Animals are assigned dermatitis scores prior to dosing and daily there after starting from Day 17 and ending on Day 30.
Skin lesion are observed and scored as follows: Hemorrhage/erythema, dryness/scaling and hyperplasia are scored as 0 (none), 1 (mild), 2 (moderate) or 3 (severe) once per day resulting in a composite score between 0 and 9. […]
Animals are observed by an observer blind to the treatment group for a period of 210 minutes post Oxazolone application. Number of scratching bouts directed to the nape between 15 to 210 min after dosing are recorded. […]

CCn1cnc2c(-c3ccc(F)c(-c4ccc(S(=O)(=O)CC)cc4OC)c3)cnnc21 [PF-06372865]
scratching bouts, chloroquine-induced itch [1]: dose-dependent reduction of scratching bouts
skin lesions (lesion score) ([2]; 1 mg/kg BID PO, Day 17-Day 30): decreases skin lesions comparable to the NCT10004
scratching bouts ([2]; 1 mg/kg PO, 15-210 minutes): reduces scratching bouts
